Tests used:
[1] = biological target: T1, partially purified telomerase from a nuclear extract of HEK293 cells (Homo sapiens, UniProt O14746); experiment: In vitro telomerase inhibition, membrane hybridization method (U.S. Pat. No. 5,760,062); type: biochemical; settings: for IC50: partially purified telomerase from nuclear extract of HEK293 cells; for residual activity of in vitro telomerase activity (in parenthesis): in the presence of the compound at a concentration of 10 μm
T1 construct: partially purified telomerase from a nuclear extract of HEK293 cells; endogenous in cells; host or cells: HEK293 cells, nuclear extract, partially purified
T1 sequence (O14746 whole entry): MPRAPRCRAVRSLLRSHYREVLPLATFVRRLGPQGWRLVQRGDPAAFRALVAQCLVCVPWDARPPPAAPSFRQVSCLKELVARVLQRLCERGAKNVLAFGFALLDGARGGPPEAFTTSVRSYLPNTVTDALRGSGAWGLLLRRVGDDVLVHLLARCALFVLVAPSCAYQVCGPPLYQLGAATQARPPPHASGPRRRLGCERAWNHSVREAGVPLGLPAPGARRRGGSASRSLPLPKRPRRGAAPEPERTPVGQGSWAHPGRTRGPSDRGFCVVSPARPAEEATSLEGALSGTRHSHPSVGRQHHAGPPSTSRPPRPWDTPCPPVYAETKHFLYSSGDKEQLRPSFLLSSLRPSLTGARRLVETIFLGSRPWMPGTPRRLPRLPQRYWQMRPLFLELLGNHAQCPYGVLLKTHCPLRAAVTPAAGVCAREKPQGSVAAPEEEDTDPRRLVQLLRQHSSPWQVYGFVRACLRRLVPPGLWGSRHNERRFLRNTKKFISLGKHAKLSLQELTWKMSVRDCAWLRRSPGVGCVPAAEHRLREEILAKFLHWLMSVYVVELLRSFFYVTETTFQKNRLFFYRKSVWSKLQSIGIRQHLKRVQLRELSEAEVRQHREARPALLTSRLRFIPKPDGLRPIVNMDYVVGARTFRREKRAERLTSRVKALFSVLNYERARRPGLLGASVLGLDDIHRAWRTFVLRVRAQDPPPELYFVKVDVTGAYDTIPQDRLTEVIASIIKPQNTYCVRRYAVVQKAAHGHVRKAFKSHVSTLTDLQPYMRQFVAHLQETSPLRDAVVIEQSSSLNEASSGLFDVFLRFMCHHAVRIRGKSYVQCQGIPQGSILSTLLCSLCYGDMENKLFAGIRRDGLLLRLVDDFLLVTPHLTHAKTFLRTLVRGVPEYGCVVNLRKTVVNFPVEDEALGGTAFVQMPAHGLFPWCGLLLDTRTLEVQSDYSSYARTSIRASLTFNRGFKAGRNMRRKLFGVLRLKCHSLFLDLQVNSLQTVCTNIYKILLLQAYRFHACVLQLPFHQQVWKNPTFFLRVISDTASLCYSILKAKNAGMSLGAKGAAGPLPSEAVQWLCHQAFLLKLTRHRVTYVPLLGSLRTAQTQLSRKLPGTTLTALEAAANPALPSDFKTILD
T1 sequence (O60832 whole entry partner): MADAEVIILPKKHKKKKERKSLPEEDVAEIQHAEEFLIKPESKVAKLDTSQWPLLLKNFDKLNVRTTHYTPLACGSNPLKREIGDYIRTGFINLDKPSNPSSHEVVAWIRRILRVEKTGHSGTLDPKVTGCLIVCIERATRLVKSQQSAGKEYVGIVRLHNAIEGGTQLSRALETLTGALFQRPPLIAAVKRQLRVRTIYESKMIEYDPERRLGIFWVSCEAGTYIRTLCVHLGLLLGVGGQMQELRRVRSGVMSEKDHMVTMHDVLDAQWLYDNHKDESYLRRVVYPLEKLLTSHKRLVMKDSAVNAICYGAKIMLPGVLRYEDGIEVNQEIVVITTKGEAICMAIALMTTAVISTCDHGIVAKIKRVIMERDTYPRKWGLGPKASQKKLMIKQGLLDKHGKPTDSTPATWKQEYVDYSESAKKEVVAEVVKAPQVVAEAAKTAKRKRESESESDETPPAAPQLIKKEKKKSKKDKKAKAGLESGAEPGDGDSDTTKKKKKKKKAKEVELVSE
T1 sequence (Q9NPE3 whole entry partner): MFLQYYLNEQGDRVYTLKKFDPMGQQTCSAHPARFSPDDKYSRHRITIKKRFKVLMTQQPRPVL
T1 sequence (Q9NX24 whole entry partner): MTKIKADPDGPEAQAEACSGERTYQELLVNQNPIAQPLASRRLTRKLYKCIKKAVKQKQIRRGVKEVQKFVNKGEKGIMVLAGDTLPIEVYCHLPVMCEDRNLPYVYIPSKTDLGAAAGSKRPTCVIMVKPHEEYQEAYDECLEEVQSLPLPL
T1 sequence (Q9NY12 whole entry partner): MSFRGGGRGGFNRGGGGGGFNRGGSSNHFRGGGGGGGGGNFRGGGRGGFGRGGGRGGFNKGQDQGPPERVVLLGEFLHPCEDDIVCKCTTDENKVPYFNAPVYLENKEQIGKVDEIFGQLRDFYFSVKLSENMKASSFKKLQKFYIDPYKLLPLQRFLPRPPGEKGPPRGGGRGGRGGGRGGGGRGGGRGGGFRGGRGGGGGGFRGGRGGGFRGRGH
Experimental: Alternatively, telomerase inhibitory activity of the compounds was measured in accordance with a known method (U.S. Pat. No. 5,760,062). That is, a dimethyl sulfoxide (DMSO) solution of each agent was mixed with partially purified telomerase from a nuclear extract of HEK293 cells and incubated in the presence of an oligodeoxynucleotide to be used as the substrate and deoxynucleotide triphosphate. The obtained reacted product (DNA having a telomere sequence) was adsorbed on a membrane, and hybridization was carried out using a labeled oligonucleotide probe having a sequence complementary to the telomere sequence. The inhibition ratio was calculated based on the ratio of the signal of label on the membrane in the presence of the agent to the signal of label in the absence of the agent (control). Also, concentration of each agent which inhibits 50% of the enzyme activity based on the control was used as IC50.

[2] = biological target: T2, telomerase in human renal carcinoma cell line ACHN (Homo sapiens, UniProt O14746); experiment: Telomerase activity in extract of agent-treated ACHN cells (TRAP assay); type: cell-based; settings: contact 3 days
T2 construct: human renal carcinoma cell line ACHN for 3 days, and then a cell extract was prepared; endogenous in cells; host or cells: ACHN human renal carcinoma cells; CHAPS extract after 3 days of treatment
T2 sequence (O14746 whole entry): as the sequence (O14746 whole entry) above
T2 sequence (O60832 whole entry partner): as the sequence (O60832 whole entry partner) above
T2 sequence (Q9NPE3 whole entry partner): as the sequence (Q9NPE3 whole entry partner) above
T2 sequence (Q9NX24 whole entry partner): as the sequence (Q9NX24 whole entry partner) above
T2 sequence (Q9NY12 whole entry partner): as the sequence (Q9NY12 whole entry partner) above
Experimental: That is, a cell extract was prepared using a buffer solution containing 0.5% CHAPS. Using the extract, TRAP (Telomeric Repeat Amplification Protocol) assay was carried out in vitro (TRAPEZE™ ELISA Telomerase Detection Kit, manufactured by Intergen). The ratio (%) of the enzyme activity in the extract from agent-treated cells to the enzyme activity in the extract from agent-untreated cells was calculated.

IC50 [1] [µM]	SMILES	also measured
2.6	O=C1NC(=O)/C(=C/c2c3ccccc3c(Sc3ccc(Cl)cc3)c3ccccc23)S1 [Compound 128]	
3.9	O=C1NC(=O)C(=Cc2cc([N+](=O)[O-])ccc2SC2CCCCC2)S1 [Compound 84]	
	O=C1NC(=O)C(=Cc2cccc(Oc3ccccc3)c2)S1 [Compound 11]	Residual Enzyme Activity (%) ([2]; concentration 100 μM): 50%
	CC(=O)Nc1ccc(Sc2ccc(C)cc2)c(C=C2SC(=O)NC2=O)c1 [Compound 3]	Residual Enzyme Activity (%) ([2]; concentration 100 μM): 0%
83	CCc1ccc(CCOc2ccc(CC3SC(=O)NC3=O)cc2)nc1 (stereo not shown) [Pioglitazone, pioglitazone, reference compound]	
8.1	O=C1NC(=O)C(=Cc2cc([N+](=O)[O-])ccc2Sc2ccc(C(=O)O)cc2)S1 [Compound 129]	
4.5	Cc1ccc(Sc2ccc(Cl)cc2C=C2SC(=O)NC2=O)cc1 [Compound 106]	
4.2	O=C1NC(=O)C(=Cc2ccc(N(c3ccccc3)c3ccccc3)cc2)S1 [Compound 26]	
4.3	COc1cc(C=C2SC(=O)NC2=O)ccc1Sc1ccc(C)cc1 [Compound 138]	
7	O=C1NC(=O)C(=Cc2cc([N+](=O)[O-])ccc2Sc2ccc(Br)cc2)S1 [Compound 73]	
	Cc1ccc(Sc2ccc([N+](=O)[O-])cc2C=C2SC(=S)NC2=O)cc1 [Compound 38]	Residual Enzyme Activity (%) ([2]; concentration 30 μM): 36%
3.7	Cc1ccc(Sc2ccc(-c3ccco3)cc2C=C2SC(=O)NC2=O)cc1 [Compound 90]	
5.5	O=C1NC(=O)C(=Cc2ccc(Sc3ccc(Br)cc3)c([N+](=O)[O-])c2)S1 [Compound 80]	
1	O=C1NC(=O)C(=Cc2cc([N+](=O)[O-])ccc2Sc2ccc(Cl)cc2)S1 [Compound 67]	
7.8	Cc1ccc(Sc2ccc(C#N)cc2C=C2SC(=O)NC2=O)cc1 [Compound 94]	
	Cc1ccc(Sc2cc(C(F)(F)F)ccc2C=C2SC(=O)NC2=O)cc1 [Compound 101]	residual activity of in vitro telomerase activity (in parenthesis) [1]: (62%)
2.6	CSc1ccc(Sc2ccc([N+](=O)[O-])cc2C=C2SC(=O)NC2=O)cc1 [Compound 132]	
4.4	Cc1ccc(Sc2ccc(C(=O)OCc3ccccc3)cc2C=C2SC(=O)NC2=O)cc1 [Compound 139]	
	Cc1ccc([S+]([O-])c2ccc(-c3ccco3)cc2C=C2SC(=O)NC2=O)cc1 (stereo not shown) [Compound 91]	residual activity of in vitro telomerase activity (in parenthesis) [1]: (61%)
	O=C1NC(=O)C(=Cc2cc([N+](=O)[O-])ccc2Oc2ccccc2)S1 [Compound 110]	residual activity of in vitro telomerase activity (in parenthesis) [1]: (53%)
6.9	Cc1ccc(Sc2ccc(Br)cc2C=C2SC(=O)NC2=O)cc1 [Compound 87]	
4.4	Cc1ccc(Sc2ccc(C(F)(F)F)cc2C=C2SC(=O)NC2=O)cc1 [Compound 100]	
3.5	O=C1NC(=O)C(=Cc2cc([N+](=O)[O-])ccc2SCc2ccc(Cl)cc2)S1 [Compound 79]	
0.77	O=C1NC(=O)C(=Cc2cc(C(=O)O)sc2Sc2ccc(Cl)cc2)S1 [Compound 53]	

IC50 [1] [µM]	SMILES	also measured
1.9	O=C1NC(=O)C(=Cc2cc(-c3ccccc3)sc2Sc2ccc(Cl)cc2)S1 [Compound 44]	
3.7	COc1ccc(Sc2ccc([N+](=O)[O-])cc2C=C2SC(=O)NC2=O)cc1 [Compound 74]	
2.7	O=C1NC(=O)C(=Cc2cc([N+](=O)[O-])ccc2Sc2ccccc2Cl)S1 [Compound 71]	
	O=C1NC(=O)C(=Cc2cc([N+](=O)[O-])ccc2N2CCCCC2)S1 [Compound 124]	residual activity of in vitro telomerase activity (in parenthesis) [1]: (54%)
2.6	O=C1NC(=O)C(=Cc2cc(Br)sc2Sc2ccc(Cl)cc2)S1 [Compound 43]	
6.2	O=C1NC(=O)C(=Cc2cc(C(=O)c3ccc(Cl)cc3)c(Sc3ccc(Cl)cc3)s2)S1 [Compound 65]	
14	COc1ccc(OCc2ccc(C)cc2)c(C=C2SC(=O)NC2=O)c1 [Compound 23]	
1.6	O=C1NC(=O)C(=Cc2cc([N+](=O)[O-])ccc2N2CCOCC2)S1 [Compound 125]	
9.7	O=C1NC(=O)/C(=C/c2cc(Br)c([S+]([O-])c3ccc(Cl)cc3)s2)S1 (stereo not shown) [Compound 64]	
5.5	Cc1ccc(Sc2ccc(C=C3SC(=O)NC3=O)cc2Oc2ccccc2)cc1 [Compound 137]	
	COc1ccc(Sc2ccc(C)cc2)c(C=C2SC(=O)NC2=O)c1 [Compound 104]	residual activity of in vitro telomerase activity (in parenthesis) [1]: (61%)
	Cc1ccc(COc2ccccc2C=C2SC(=O)NC2=O)cc1 [Compound 22]	Residual Enzyme Activity (%) ([2]; concentration 100 μM): 33%
3.9	O=C1NC(=O)C(=Cc2cc([N+](=O)[O-])ccc2SCc2ccccc2)S1 [Compound 76]	
3.9	O=C1NC(=O)C(=Cc2ccc(CN(c3ccccc3)c3ccccc3)cc2)S1 [Compound 35]	
	Cc1ccc([S+]([O-])c2ccc(-c3cccs3)cc2C=C2SC(=O)NC2=O)cc1 (stereo not shown) [Compound 93]	residual activity of in vitro telomerase activity (in parenthesis) [1]: (55%)
6.5	O=C1NC(=O)C(=Cc2cc(Br)c(Sc3ccc(Cl)cc3)s2)S1 [Compound 63]	
7.8	O=C1NC(=O)C(=Cc2ccc(Sc3ccc(Cl)cc3)s2)S1 [Compound 62]	
1.3	COc1cc(O)ccc1C=C1SC(=O)NC1=O [Compound 126]	
70	Cc1ccc(COc2cc(C=C3SC(=O)NC3=O)ccc2[N+](=O)[O-])cc1 [Compound 19]	
5.9	O=C1NC(=O)C(=Cc2cccc(Oc3ccc(Cl)c(Cl)c3)c2)S1 [Compound 13]	
5.5	O=C1NC(=O)C(=Cc2ccc(C(O)(c3ccccc3)c3ccccc3)cc2)S1 [Compound 33]	
1.6	Cc1ccc(COc2ccc(-c3cccs3)cc2C=C2SC(=O)NC2=O)cc1 [Compound 48]	
4.1	Cc1ccc(COc2ccc(-c3ccccc3)cc2C=C2SC(=O)NC2=O)cc1 [Compound 47]	
10	O=C1NC(=O)C(=Cc2cc([N+](=O)[O-])ccc2OCc2ccc(Cl)c(Cl)c2)S1 [Compound 17]	

IC50 [1] [µM]	SMILES	also measured
4	O=C1NC(=O)C(=Cc2ccc(N(Cc3ccccc3)c3ccccc3)cc2)S1 [Compound 121]	
0.33	O=C1NC(=O)C(=Cc2cc(Sc3ccc(Cl)cc3)c(Sc3ccc(Cl)cc3)s2)S1 [Compound 61]	
7.7	O=C1NC(=O)C(=Cc2cc([N+](=O)[O-])ccc2SCCO)S1 [Compound 122]	
11	Cc1ccc(COc2ccc([N+](=O)[O-])cc2C=C2SC(=O)NC2=O)cc1 [Compound 18]	
16	Cc1c(C)c2c(c(C)c1O)CCC(C)(COc1ccc(CC3SC(=O)NC3=O)cc1)O2 (stereo not shown) [Troglitazone, troglitazone, reference compound]	
7.2	O=C1NC(=O)C(=Cc2cc([N+](=O)[O-])ccc2Sc2ccc3ccccc3c2)S1 [Compound 171]	
4.8	O=C1NC(=O)C(=Cc2cc([N+](=O)[O-])ccc2Sc2cccc(Cl)c2)S1 [Compound 70]	
2.7	O=C1NC(=O)C(=Cc2cc([N+](=O)[O-])ccc2Sc2ccc(C(F)(F)F)cc2)S1 [Compound 115]	
4.5	O=C1NC(=O)C(=Cc2cc(Sc3ccc(Cl)cc3)cs2)S1 [Compound 60]	
6.9	Cc1ccc(Sc2cccc(C(F)(F)F)c2C=C2SC(=O)NC2=O)cc1 [Compound 99]	
8.3	Cc1ccc(Sc2ccc(C=C3SC(=O)NC3=O)cc2[N+](=O)[O-])cc1 [Compound 9]	
5.7	O=C1NC(=O)C(=Cc2ccccc2OC(F)(F)F)S1 [Compound 127]	
5.1	O=C1NC(=O)C(=Cc2ccc(N(Cc3ccccc3)Cc3ccccc3)cc2)S1 [Compound 36]	
	COC(=O)c1cc(C=C2SC(=O)NC2=O)c(Sc2ccc(Cl)cc2)s1 [Compound 58]	residual activity of in vitro telomerase activity (in parenthesis) [1]: (56%)
2.1	O=C1NC(=O)C(=Cc2sccc2Oc2ccccc2)S1 [Compound 59]	
4.4	O=C1NC(=O)C(=Cc2ccc(N(c3ccc(CO)cc3)c3ccc(CO)cc3)cc2)S1 [Compound 49]	
6.9	CCCN(CCC)c1ccc([N+](=O)[O-])cc1C=C1SC(=O)NC1=O [Compound 123]	
21	O=C1NC(=O)C(=Cc2ccc(Cc3ccccc3)cc2)S1 [Compound 32]	
	Cc1ccc(Sc2ccc(CO)cc2C=C2SC(=O)NC2=O)cc1 [Compound 96]	residual activity of in vitro telomerase activity (in parenthesis) [1]: (62%)
15	O=C1NC(=O)C(=Cc2ccc(C(=O)c3ccccc3)cc2)S1 [Compound 31]	
5.3	O=C1NC(=O)C(=Cc2cc(C(=O)Nc3ccccc3)sc2Sc2ccc(Cl)cc2)S1 [Compound 55]	
4.3	O=C1NC(=O)C(=Cc2cc([N+](=O)[O-])ccc2Sc2ccc(Cl)c(Cl)c2)S1 [Compound 72]	

SMILES	IC50 [1] [µM]	also measured
Cc1ccc(COc2ccc(C=C3SC(=O)NC3=O)cc2[N+](=O)[O-])cc1 [Compound 20]	9	
Cc1ccc(COc2ccc(Cl)cc2C=C2SC(=O)NC2=O)cc1 [Compound 24]	5.3	
Cc1ccc(COc2ccc(Br)cc2C=C2SC(=O)NC2=O)cc1 [Compound 25]	4.2	

From patent publication US6518268B1, “Telomerase inhibitors and methods of their use” (Geron Corporation, priority 1999, dated 2003)
